Key:
[1] = test system: dog; details: Chronic toxicity, beagle, Oral, Feed, dose end: 12 month
[2] = test system: rat; details: Multigenerational reproductive toxicity study, sprague dawley, Oral, Feed, dose end: 3 generation
[3] = test system: rat; details: Multigenerational reproductive toxicity study, sprague dawley, Oral, Gavage/Intubation, dose end: 2 generation
[4] = test system: rat; details: Multigenerational reproductive toxicity study, sprague dawley, Oral, Gavage/Intubation, dose end: 2 generation; remark: listed apart in the source
[5] = test system: rat; details: Prenatal developmental toxicity study, fischer, Oral, Gavage/Intubation, dose end: 15 GD
[6] = test system: mouse; details: Prenatal developmental toxicity study, cd1, Oral, Gavage/Intubation, dose end: 15 GD
[7] = test system: rat; details: Combined chronic toxicity/carcinogenicity, fischer, Oral, Feed, dose end: 24 month
[8] = test system: rat; details: Subchronic oral toxicity in rodents, fischer, Feed, dose end: 13 week
[9] = test system: dog; details: Subchronic oral toxicity in nonrodent, beagle, Feed, dose end: 13 week
[10] = test system: rat; details: Multigenerational reproductive toxicity study, sprague dawley, Oral, Feed, dose end: 2 generation
[11] = test system: rat; details: Multigenerational reproductive toxicity study, sprague dawley, Oral, Feed, dose end: 2 generation; remark: listed apart in the source
[12] = test system: mouse; details: Carcinogenicity, cd1, Oral, Feed, dose end: 78 week
[13] = test system: rat; details: Prenatal developmental toxicity study, sprague dawley, Oral, Gavage/Intubation, dose end: 15 GD
[14] = test system: rat; details: Subchronic oral toxicity in rodents, Gavage/Intubation, dose end: 91 day
[15] = group: cholinesterase, cholinesterase / cholinesterase / cholinesterase / plasma cholinesterase (che)
[16] = group: systemic, systemic / clinical chemistry / calcium / calcium + systemic / clinical chemistry / potassium / potassium + systemic / clinical chemistry / …
[17] = group: offspring, systemic / in life observation / body weight / offspring (pup) weight
[18] = group: offspring, systemic / in life observation / body weight / offspring (pup) weight + developmental / offspring survival late / viability index / …
[19] = group: parental, systemic / in life observation / body weight / body weight
[20] = group: parental, systemic / in life observation / body weight / body weight + systemic / in life observation / food consumption / food consumption
[21] = group: offspring, developmental / offspring survival late / viability index / viability index + systemic / in life observation / body weight / offspring (pup…
[22] = group: offspring, systemic / in life observation / body weight / offspring (pup) weight + systemic / in life observation / body weight / offspring (pup) …
[23] = group: parental, systemic / in life observation / body weight / body weight gain + systemic / in life observation / clinical signs / [other] + systemic / in …
[24] = group: parental, systemic / in life observation / clinical signs / reduced activity + systemic / in life observation / body weight / body weight gain + …
[25] = group: reproductive, reproductive / reproductive performance / estrous cycle / length + reproductive / reproductive performance / pregnancy index / pregnancy …
[26] = group: parental, systemic / in life observation / clinical signs / reduced activity
[27] = group: parental, systemic / in life observation / clinical signs / reduced activity + systemic / organ weight / adrenal gland / relative to body weight + …
[28] = group: reproductive, reproductive / offspring survival early / litter size / litter size + reproductive / offspring survival early / live fetuses / live fetuses
[29] = group: reproductive, reproductive / reproductive performance / gestational length / gestational length + reproductive / reproductive performance / pregnancy …
[30] = group: developmental, systemic / in life observation / body weight / fetal weight
[31] = group: maternal, reproductive / reproductive performance / resorptions / resorptions + systemic / in life observation / body weight / body weight + systemic…
[32] = group: maternal, systemic / in life observation / clinical signs / hunched posture + systemic / in life observation / clinical signs / lacrimation + systemic…
[33] = group: developmental, developmental / developmental malformation / general / [other] + systemic / in life observation / body weight / fetal weight
[34] = group: cholinesterase, cholinesterase / cholinesterase / cholinesterase / erythrocyte cholinesterase (che)
[35] = group: cholinesterase, cholinesterase / cholinesterase / cholinesterase / erythrocyte cholinesterase (che) + cholinesterase / cholinesterase / cholinesterase / …
[36] = group: systemic, systemic / pathology microscopic / pituitary gland / adenoma + systemic / pathology microscopic / uterus / polyp stromal + systemic / …
[37] = group: systemic, systemic / hematology / platelet / platelet + systemic / organ weight / adrenal gland / absolute + systemic / organ weight / testes / …
[38] = group: systemic, systemic / pathology microscopic / adrenal gland / hypertrophy + systemic / pathology microscopic / adrenal gland / necrosis + systemic / …
[39] = group: cholinesterase, cholinesterase / cholinesterase / cholinesterase / plasma cholinesterase (che) + cholinesterase / cholinesterase / cholinesterase / …
[40] = group: systemic, systemic / clinical chemistry / albumin / albumin + systemic / clinical chemistry / alkaline phosphatase (alp/alk) / alkaline phosphatase (…
[41] = group: offspring, systemic / organ weight / spleen / absolute + systemic / organ weight / spleen / relative to body weight
[42] = group: parental, systemic / pathology microscopic / adrenal gland / vacuolization cytoplasmic + systemic / organ weight / adrenal gland / absolute + systemic…
[43] = group: offspring, developmental / offspring survival late / lactation index / lactation index + systemic / in life observation / body weight / offspring (pup…
[44] = group: parental, systemic / pathology microscopic / adrenal gland / [other] + systemic / pathology microscopic / adrenal gland / vacuolization + systemic / …
[45] = group: cholinesterase, cholinesterase / cholinesterase / cholinesterase / brain cholinesterase (che) + cholinesterase / cholinesterase / cholinesterase / …
[46] = group: systemic, systemic / urinalysis / protein / protein
[47] = group: maternal, systemic / organ weight / placenta / absolute
[48] = group: maternal, reproductive / reproductive performance / estrous cycle / abnormal + reproductive / reproductive performance / estrous cycle / absent …
[49] = group: systemic, systemic / clinical chemistry / albumin / albumin + systemic / clinical chemistry / cholesterol / cholesterol + systemic / clinical …
[50] = group: systemic, systemic / clinical chemistry / sodium / sodium + systemic / pathology microscopic / mammary gland / hyperplastic alveolar nodule + systemic…

`CNC(=O)Oc1cccc2c1OC(C)(C)C2` [Carbofuran] was tested, and the LEL [1, 15] was 0.5 mg/kg/day, the LOAEL [1, 15] was 0.5 mg/kg/day and the NEL [1, 15] was 0.25 mg/kg/day. The NOAEL [1, 15] was 0.25 mg/kg/day, the LEL [1, 16] was 12.5 mg/kg/day and the LOAEL [1, 16] was > 12.5 mg/kg/day. For the same compound, the NEL [1, 16] was 0.5 mg/kg/day, the NOAEL [1, 16] was ≥ 12.5 mg/kg/day and the NEL [2, 17] was 1 mg/kg/day. For the same compound, the NOAEL [2, 17] was 1 mg/kg/day, the LEL [2, 18] was 5 mg/kg/day and the LOAEL [2, 18] was 5 mg/kg/day. The LEL [2, 19] was 1 mg/kg/day, the NEL [2, 19] was < 1 mg/kg/day and the LOAEL [2, 20] was 5 mg/kg/day. The NOAEL [2, 20] was 1 mg/kg/day.

In the case of `CN(C)CCCN1c2ccccc2Sc2ccc(Cl)cc21.Cl` [Chlorpromazine hydrochloride], the LOAEL [3, 21] is reported as > 100 mg/kg/day, the NOAEL [3, 21] is reported as ≥ 100 mg/kg/day and the LEL [3, 22] is reported as 12.5 mg/kg/day. For the same compound, the NEL [3, 22] was < 12.5 mg/kg/day, the LOAEL [3, 23] was > 100 mg/kg/day and the NOAEL [3, 23] was ≥ 100 mg/kg/day. The LEL [3, 24] was 12.5 mg/kg/day, the NEL [3, 24] was < 12.5 mg/kg/day and the LEL ([3]; group: reproductive, reproductive / reproductive performance / estrous cycle / length) was 25 mg/kg/day. For the same compound, the LOAEL [3, 25] was > 100 mg/kg/day, the NEL [3, 25] was 12.5 mg/kg/day and the NOAEL [3, 25] was ≥ 100 mg/kg/day. For the same compound, the LOAEL [4, 21] was > 100 mg/kg/day, the NOAEL [4, 21] was ≥ 100 mg/kg/day and the LEL [4, 17] was 12.5 mg/kg/day. The NEL [4, 17] was < 12.5 mg/kg/day, the LEL [4, 26] was 12.5 mg/kg/day and the NEL [4, 26] was < 12.5 mg/kg/day. The LOAEL [4, 27] was > 100 mg/kg/day, the NOAEL [4, 27] was ≥ 100 mg/kg/day and the LEL [4, 28] was 12.5 mg/kg/day. For the same compound, the NEL [4, 28] was < 12.5 mg/kg/day, the LOAEL [4, 29] was > 100 mg/kg/day and the NOAEL [4, 29] was ≥ 100 mg/kg/day. For the same compound, the LEL [5, 30] was 5 mg/kg/day, the LOAEL [5, 30] was > 45 mg/kg/day and the NEL [5, 30] was < 5 mg/kg/day. The NOAEL [5, 30] was ≥ 45 mg/kg/day, the LOAEL [5, 31] was > 45 mg/kg/day and the NOAEL [5, 31] was ≥ 45 mg/kg/day. The LEL [5, 32] was 5 mg/kg/day, the NEL [5, 32] was < 5 mg/kg/day and the LOAEL [6, 33] was > 30 mg/kg/day. For the same compound, the NEL [6, 33] was 5 mg/kg/day, the NOAEL [6, 33] was ≥ 30 mg/kg/day and the LEL [6, 30] was 15 mg/kg/day. The LOAEL [6, 31] was > 30 mg/kg/day, the NEL [6, 31] was 5 mg/kg/day and the NOAEL [6, 31] was ≥ 30 mg/kg/day. For the same compound, the LEL ([6]; group: maternal, systemic / in life observation / body weight / body weight + systemic / in life observation / body weight / body weight gain) was 15 mg/kg/day.

`COP(=S)(OC)Oc1nc(Cl)c(Cl)cc1Cl` [Chlorpyrifos-methyl] was tested, and the LEL [7, 34] was 0.1 mg/kg/day, the LOAEL [7, 35] was 1 mg/kg/day and the NEL [7, 35] was 0.05 mg/kg/day. For the same compound, the NOAEL [7, 35] was 0.1 mg/kg/day, the LEL ([7]; group: systemic, systemic / pathology microscopic / pituitary gland / adenoma) was 0.1 mg/kg/day and the LOAEL ([7]; group: systemic, systemic / pathology microscopic / pituitary gland / adenoma + systemic / pathology microscopic / adrenal gland / vacuolization) was 1 mg/kg/day. The NEL [7, 36] was 0.05 mg/kg/day, the NOAEL [7, 36] was 0.1 mg/kg/day and the LEL [8, 15] was 0.1 mg/kg/day. For the same compound, the LOAEL [8, 15] was 0.1 mg/kg/day, the NEL [8, 15] was < 0.1 mg/kg/day and the NOAEL [8, 15] was < 0.1 mg/kg/day. The LEL [8, 37] was 0.1 mg/kg/day, the NEL [8, 37] was < 0.1 mg/kg/day and the LOAEL [8, 38] was 10 mg/kg/day. For the same compound, the NOAEL [8, 38] was 1 mg/kg/day, the LEL [9, 15] was 0.1 mg/kg/day and the NEL [9, 15] was < 0.1 mg/kg/day. The LOAEL [9, 39] was 10 mg/kg/day, the NOAEL [9, 39] was 0.1 mg/kg/day and the LEL [9, 40] was 50 mg/kg/day. It also gave an LOAEL [9, 40] of 50 mg/kg/day, an NEL [9, 40] of 10 mg/kg/day and an NOAEL [9, 40] of 10 mg/kg/day. For the same compound, the LEL [10, 34] was 1 mg/kg/day, the LOAEL [10, 34] was 1 mg/kg/day and the NEL [10, 34] was < 1 mg/kg/day. The NOAEL [10, 34] was < 1 mg/kg/day, the LEL [10, 41] was 10 mg/kg/day and the LOAEL [10, 41] was > 10 mg/kg/day. For the same compound, the NEL [10, 41] was 3 mg/kg/day, the NOAEL [10, 41] was ≥ 10 mg/kg/day and the LOAEL ([10]; group: parental, systemic / pathology microscopic / adrenal gland / vacuolization cytoplasmic) was 3 mg/kg/day. The LEL [10, 42] was 3 mg/kg/day, the NEL [10, 42] was 1 mg/kg/day and the NOAEL [10, 42] was 1 mg/kg/day. The LEL [11, 35] was 1 mg/kg/day, the LOAEL [11, 35] was 1 mg/kg/day and the NEL [11, 35] was 0.1 mg/kg/day. The NOAEL [11, 35] was 0.1 mg/kg/day, the LEL [11, 43] was 5 mg/kg/day and the LOAEL [11, 43] was 5 mg/kg/day. For the same compound, the NEL [11, 43] was 1 mg/kg/day, the NOAEL [11, 43] was 1 mg/kg/day and the NEL ([11]; group: parental, systemic / pathology microscopic / adrenal gland / [other] + systemic / pathology microscopic / adrenal gland / vacuolization) was 1 mg/kg/day. For the same compound, the LEL [11, 44] was 5 mg/kg/day, the LOAEL [11, 44] was > 5 mg/kg/day and the NOAEL [11, 44] was ≥ 5 mg/kg/day. For the same compound, the LEL [12, 45] was 3.94 mg/kg/day, the LOAEL [12, 45] was 3.94 mg/kg/day and the NEL [12, 45] was 0.403 mg/kg/day. It also gave an NOAEL [12, 45] of 0.403 mg/kg/day, an LOAEL ([12]; group: systemic, systemic / pathology microscopic / liver / fatty change) of 41.5 mg/kg/day and an NOAEL ([12]; group: systemic, systemic / pathology microscopic / liver / fatty change + systemic / clinical chemistry / alkaline phosphatase (alp/alk) / alkaline …) of 3.94 mg/kg/day. For the same compound, the LEL [12, 46] was 0.0816 mg/kg/day and the NEL [12, 46] was < 0.0816 mg/kg/day.

In the case of `O=C1CCCO1` [4-Butyrolactone], the LEL [13, 30] is reported as 50 mg/kg/day, the LOAEL [13, 30] is reported as > 500 mg/kg/day and the NEL [13, 30] is reported as 10 mg/kg/day. For the same compound, the NOAEL [13, 30] was ≥ 500 mg/kg/day, the LEL [13, 47] was 10 mg/kg/day and the LOAEL [13, 47] was > 500 mg/kg/day. The NEL [13, 47] was < 10 mg/kg/day and the NOAEL [13, 47] was ≥ 500 mg/kg/day.

With `CS(=O)(=O)O.Cc1cc(CCN2CCN(c3nsc4ccccc34)CC2)cc2c1NC(=O)CC2(C)C` the LEL [14, 48] was 10 mg/kg/day, the LOAEL [14, 48] was > 60 mg/kg/day and the NEL [14, 48] was < 10 mg/kg/day. For the same compound, the NOAEL [14, 48] was ≥ 60 mg/kg/day, the LOAEL [14, 49] was > 60 mg/kg/day and the NOAEL [14, 49] was ≥ 60 mg/kg/day. For the same compound, the LEL [14, 50] was 10 mg/kg/day and the NEL [14, 50] was < 10 mg/kg/day.

— EPA's ToxRefDB 2
